In paper PMC6801739, “Antitumor Activity of a Novel Tyrosine Kinase Inhibitor AIU2001 Due to Abrogation of the DNA Damage Repair in Non-Small Cell Lung Cancer Cells” (International Journal of Molecular Sciences, 2019):

Legend:
[1] = target: T1, FGFR2 (Homo sapiens, UniProt P21802); test: Kinase profiling at 10 μM (Eurofins); type: biochemical; conditions: read-out: Inhibitory activity
T1 construct: purchased Eurofins Pharma Discovery (KinaseProfiler); IC50 values by Reaction Biology Corp

[2] = target: T2, IGF-1R (Homo sapiens, UniProt P08069); test: Kinase profiling at 10 μM (Eurofins); type: biochemical; conditions: read-out: Inhibitory activity
T2 construct: purchased Eurofins Pharma Discovery (KinaseProfiler); IC50 values by Reaction Biology Corp

[3] = tested on: A549 cells; test: γ-H2AX immunofluorescence foci assay; type: cell-based, human; conditions: 5 μM
Description: (§1) For γ-H2AX and 4′,6-diamidino-2-phenylindole (DAPI) staining, cells were fixed in 4% paraformaldehyde for 15 min at room temperature and permeabilized with 0.1% Triton X-100 in PBS for 20 min. The cells were then incubated with 1:200 dilution of anti-phosho-H2AX (Ser139) antibody overnight at 4 °C. AlexaFluor 594-conjugated anti-mouse IgG antibody (Abcam, Cambridge, UK) was used at 1:400 dilution for 1 h at room temperature. The slides were mounted in mounting medium (DAKO, Santa Clara, CA, USA) with DAPI (ThermoFisher Scientific) before imaging. Images were acquired using an LSM880 laser scanning microscope (ZEISS, Jena, Germany). Fluorescent images were captured using the appropriate filters. Images were analyzed using the Image J and ZEN software.

[4] = tested on: H1299 cells; test: γ-H2AX immunofluorescence foci assay; type: cell-based, human; conditions: 5 μM
Description: as §1

[5] = target: T3, B-RAF (Homo sapiens, UniProt P15056); test: Kinase profiling at 10 μM (Eurofins); type: biochemical; conditions: read-out: Inhibitory activity
T3 construct: purchased Eurofins Pharma Discovery (KinaseProfiler); IC50 values by Reaction Biology Corp

[6] = target: T4, EGFR(T790M,L858R) (Homo sapiens, UniProt P00533, L858R/T790M); test: Kinase profiling at 10 μM (Eurofins); type: biochemical; conditions: read-out: Inhibitory activity
T4 construct: purchased Eurofins Pharma Discovery (KinaseProfiler); IC50 values by Reaction Biology Corp
T4 sequence (P00533 25-1210 T790M/L858R): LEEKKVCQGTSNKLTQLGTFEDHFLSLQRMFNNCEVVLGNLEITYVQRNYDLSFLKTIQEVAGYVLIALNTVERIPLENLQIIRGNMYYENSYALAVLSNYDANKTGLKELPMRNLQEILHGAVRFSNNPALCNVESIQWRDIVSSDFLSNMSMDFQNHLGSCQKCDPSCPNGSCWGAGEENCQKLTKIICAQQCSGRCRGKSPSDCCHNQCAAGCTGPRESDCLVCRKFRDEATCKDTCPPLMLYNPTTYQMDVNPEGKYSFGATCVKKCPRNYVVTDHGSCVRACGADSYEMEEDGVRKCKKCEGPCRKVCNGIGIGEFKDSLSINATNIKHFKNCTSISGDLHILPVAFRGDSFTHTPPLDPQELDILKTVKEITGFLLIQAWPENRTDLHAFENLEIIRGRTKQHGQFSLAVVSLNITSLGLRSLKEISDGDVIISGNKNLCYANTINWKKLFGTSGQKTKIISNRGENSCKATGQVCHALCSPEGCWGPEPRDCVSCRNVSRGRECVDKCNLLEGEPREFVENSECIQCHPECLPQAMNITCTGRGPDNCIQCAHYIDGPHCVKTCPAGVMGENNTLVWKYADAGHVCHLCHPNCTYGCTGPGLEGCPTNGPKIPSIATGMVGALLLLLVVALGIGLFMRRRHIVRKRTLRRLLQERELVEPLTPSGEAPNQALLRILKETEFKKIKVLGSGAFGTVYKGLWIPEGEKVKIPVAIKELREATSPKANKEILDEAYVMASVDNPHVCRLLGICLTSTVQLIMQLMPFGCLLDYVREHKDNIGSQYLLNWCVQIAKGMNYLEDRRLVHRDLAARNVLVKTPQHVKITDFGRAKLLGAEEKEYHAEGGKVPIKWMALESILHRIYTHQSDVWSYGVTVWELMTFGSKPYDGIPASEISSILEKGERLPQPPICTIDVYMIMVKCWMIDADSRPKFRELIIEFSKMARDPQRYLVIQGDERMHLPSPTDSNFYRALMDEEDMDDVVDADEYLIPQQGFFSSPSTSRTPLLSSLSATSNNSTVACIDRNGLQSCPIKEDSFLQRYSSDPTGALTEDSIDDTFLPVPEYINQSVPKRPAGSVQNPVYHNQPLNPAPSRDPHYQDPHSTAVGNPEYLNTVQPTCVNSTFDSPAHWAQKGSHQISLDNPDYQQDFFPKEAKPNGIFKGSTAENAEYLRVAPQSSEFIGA

[7] = target: T5, ERBB2 (Homo sapiens, UniProt P04626); test: Kinase profiling at 10 μM (Eurofins); type: biochemical; conditions: read-out: Inhibitory activity
T5 construct: purchased Eurofins Pharma Discovery (KinaseProfiler); IC50 values by Reaction Biology Corp

[8] = tested on: A549 cells; test: Immunoblot of cleaved caspase-3 and PARP-1; type: cell-based, human; conditions: 48 h
Description: (§2) Cell lysates were prepared by extracting proteins with TNN buffer (40 mM Tris-Cl pH 8.0, 0.2% NP-40, 120 mM NaCl) or radioimmunoprecipitation assay (RIPA) lysis buffer (Millipore, Billerica MA, USA) supplemented with a protease inhibitor cocktail (Thermo Fisher Scientific, Rockford, IL, USA). Equal amounts of proteins were separated using SDS-PAGE on 8–13% gels, and transferred to nitrocellulose membranes (Bio-Rad, Hercules, CA, USA). The membranes were blocked with 5% skim milk in Tris-buffered saline-Tween 20 (TBST) (150 mM NaCl, 10 mM Tris, 0.2% Tween20), followed by overnight incubation with primary antibodies at 4 °C. The blots were developed using peroxidase-conjugated secondary antibody and the immunoreactive proteins were visualized using enhanced chemiluminescence (ECL) reagents, according to the manufacturer’s recommendations (Amersham, GE Healthcare, Buckingamshire, UK). The protein bands were visualized using a digital imaging system (ImageQuant LAS 4000 mini; GE Healthcare, UK). The protein levels were analyzed using Image J software (National Institutes of Health, Bethesda, MD, USA). Experiments were repeated at least thrice.

[9] = tested on: H1299 cells; test: Immunoblot of cleaved caspase-3 and PARP-1; type: cell-based, human; conditions: 48 h
Description: as §2

[10] = target: T6, PI3 Kinase (p110a/p85a) (Homo sapiens, UniProt P42336); test: Kinase profiling at 10 μM (Eurofins); type: biochemical; conditions: read-out: Inhibitory activity
T6 construct: purchased Eurofins Pharma Discovery (KinaseProfiler); IC50 values by Reaction Biology Corp

[11] = tested on: HCT116 p53-/- cells; test: MTT cell viability assay; type: cell-based, human; conditions: 5 days
Description: (§3) Cell viability was assessed using the MTT colorimetric assay. Cells (1 × 10^3 cells/well) were seeded into 96-well plates and treated with the various concentrations of each compound or combination of two compounds. After five days of treatment, 10 μL MTT (0.5 mg/mL) was added, and further incubated for 3 h. After removal of the supernatant, the resultant pellet was dissolved in DMSO. The absorbance of the resultant formazan was measured at 540 nm using a plate reader (Multiskan EX; ThermoLabsystems, Waltham, MA, USA).
(§4) Supplementary Figure 1. AIU2001 inhibited the proliferation of various cancer cells. (A and B)
(§5) Human AML cells (Molm-13 and MV4-11; A) and human colorectal cancer (CRC) cells
(§6) (HCT116/p53+/+ and HCT116/p53-/-; B) were treated with AIU2001 at the indicated concentrations for
(§7) 5 days and viable cells were evaluated using the CCK-8 assay for AML cells and the MTT assay for
(§8) CRC cells. *p < 0.05, **p < 0.01, ***p < 0.001 versus respective vehicle controls.
(§9) (also on this page, place not known: ca ncer fo r 02468 Cell viability (%) 0 1 Cell viability (%) *** *** ***)

[12] = tested on: HCT116 p53+/+ cells; test: MTT cell viability assay; type: cell-based, human; conditions: 5 days
Description: as §3, §4, §5, §6, §7, §8, §9

[13] = target: T7, DAPK1 (Homo sapiens, UniProt P53355); test: Kinase profiling at 10 μM (Eurofins); type: biochemical; conditions: read-out: Inhibitory activity
T7 construct: purchased Eurofins Pharma Discovery (KinaseProfiler); IC50 values by Reaction Biology Corp
T7 sequence (P53355 whole entry): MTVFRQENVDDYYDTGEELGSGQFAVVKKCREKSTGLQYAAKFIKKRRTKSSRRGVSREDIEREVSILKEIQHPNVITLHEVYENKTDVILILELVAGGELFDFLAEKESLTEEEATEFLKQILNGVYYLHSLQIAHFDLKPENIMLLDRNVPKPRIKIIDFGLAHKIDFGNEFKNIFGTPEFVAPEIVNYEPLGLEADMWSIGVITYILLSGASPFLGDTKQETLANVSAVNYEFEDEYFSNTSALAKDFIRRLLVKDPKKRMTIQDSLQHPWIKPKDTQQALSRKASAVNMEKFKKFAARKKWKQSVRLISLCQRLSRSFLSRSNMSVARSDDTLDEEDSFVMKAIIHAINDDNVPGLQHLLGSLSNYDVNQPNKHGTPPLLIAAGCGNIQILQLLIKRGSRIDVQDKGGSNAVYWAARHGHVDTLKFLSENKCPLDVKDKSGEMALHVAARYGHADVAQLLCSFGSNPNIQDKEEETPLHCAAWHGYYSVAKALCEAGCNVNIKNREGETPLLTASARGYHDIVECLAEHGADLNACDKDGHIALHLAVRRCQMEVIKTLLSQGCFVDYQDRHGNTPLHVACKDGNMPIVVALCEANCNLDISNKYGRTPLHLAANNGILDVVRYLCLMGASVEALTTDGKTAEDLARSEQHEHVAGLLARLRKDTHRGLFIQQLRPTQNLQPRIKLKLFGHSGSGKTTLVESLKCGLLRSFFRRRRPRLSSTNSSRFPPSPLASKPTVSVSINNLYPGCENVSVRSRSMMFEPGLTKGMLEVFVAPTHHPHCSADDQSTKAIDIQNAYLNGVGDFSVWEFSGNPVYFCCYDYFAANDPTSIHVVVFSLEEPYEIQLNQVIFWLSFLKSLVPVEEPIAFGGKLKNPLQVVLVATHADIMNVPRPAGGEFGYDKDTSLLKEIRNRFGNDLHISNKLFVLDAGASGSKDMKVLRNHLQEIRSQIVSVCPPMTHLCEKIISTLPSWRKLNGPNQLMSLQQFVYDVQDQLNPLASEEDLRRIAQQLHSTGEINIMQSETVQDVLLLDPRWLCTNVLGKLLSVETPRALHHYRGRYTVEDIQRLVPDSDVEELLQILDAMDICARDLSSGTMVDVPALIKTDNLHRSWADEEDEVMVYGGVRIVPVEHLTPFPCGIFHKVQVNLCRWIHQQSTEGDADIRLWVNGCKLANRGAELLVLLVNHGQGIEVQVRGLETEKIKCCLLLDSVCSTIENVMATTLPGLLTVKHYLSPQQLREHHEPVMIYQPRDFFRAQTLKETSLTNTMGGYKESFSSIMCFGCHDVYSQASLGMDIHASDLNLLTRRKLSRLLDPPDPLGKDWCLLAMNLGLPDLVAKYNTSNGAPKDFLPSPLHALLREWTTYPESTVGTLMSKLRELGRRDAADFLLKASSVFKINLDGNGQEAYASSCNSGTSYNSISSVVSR

[14] = target: T8, EPHB4 (Homo sapiens, UniProt P54760); test: Kinase profiling at 10 μM (Eurofins); type: biochemical; conditions: read-out: Inhibitory activity
T8 construct: purchased Eurofins Pharma Discovery (KinaseProfiler); IC50 values by Reaction Biology Corp

[15] = tested on: MV4-11 cells; test: Immunoblot of phospho-STAT5; type: cell-based, human; conditions: 1 h
Description: as §2
(§10) Supplementary Figure 3. AIU2001 inhibited downstream effector STAT5 of FLT3 signaling in
(§11) FLT3(ITD)-AML cells. […]
(§12) AIU2001 for 1h. Cell lysates were prepared and analyzed using immunoblotting for detecting […]

[16] = tested on: Molm-13 cells; test: Immunoblot of phospho-STAT5; type: cell-based, human; conditions: 1 h
Description: as §2, §10, §11, §12

[17] = target: T9, EGFR (Homo sapiens, UniProt P00533); test: Kinase profiling at 10 μM (Eurofins); type: biochemical; conditions: read-out: Inhibitory activity
T9 construct: purchased Eurofins Pharma Discovery (KinaseProfiler); IC50 values by Reaction Biology Corp

[18] = target: T10, CK1γ1 (Homo sapiens, UniProt Q9HCP0); test: Kinase profiling at 10 μM (Eurofins); type: biochemical; conditions: read-out: Inhibitory activity
T10 construct: purchased Eurofins Pharma Discovery (KinaseProfiler); IC50 values by Reaction Biology Corp

[19] = target: FLT3 (ITD) (Homo sapiens, UniProt P36888, ITD); test: In vitro kinase assay, IC50 (Reaction Biology Corp.); type: biochemical
FLT3 (ITD), sequence (P36888 564-993, stated change not applied): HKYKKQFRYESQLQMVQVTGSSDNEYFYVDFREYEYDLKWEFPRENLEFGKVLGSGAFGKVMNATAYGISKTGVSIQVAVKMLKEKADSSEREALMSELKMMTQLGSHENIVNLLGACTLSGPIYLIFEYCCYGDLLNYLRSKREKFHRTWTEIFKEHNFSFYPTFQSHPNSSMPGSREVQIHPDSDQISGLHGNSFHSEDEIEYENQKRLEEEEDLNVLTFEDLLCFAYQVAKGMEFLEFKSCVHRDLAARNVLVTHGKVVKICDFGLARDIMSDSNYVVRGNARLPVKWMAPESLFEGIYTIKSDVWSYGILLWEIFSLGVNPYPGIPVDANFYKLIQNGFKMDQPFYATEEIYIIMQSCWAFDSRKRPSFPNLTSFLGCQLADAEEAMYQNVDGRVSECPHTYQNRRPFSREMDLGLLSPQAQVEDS

[20] = target: T11, PDK1 (Homo sapiens, UniProt O15530); test: Kinase profiling at 10 μM (Eurofins); type: biochemical; conditions: read-out: Inhibitory activity
T11 construct: purchased Eurofins Pharma Discovery (KinaseProfiler); IC50 values by Reaction Biology Corp
T11 sequence (O15530 whole entry): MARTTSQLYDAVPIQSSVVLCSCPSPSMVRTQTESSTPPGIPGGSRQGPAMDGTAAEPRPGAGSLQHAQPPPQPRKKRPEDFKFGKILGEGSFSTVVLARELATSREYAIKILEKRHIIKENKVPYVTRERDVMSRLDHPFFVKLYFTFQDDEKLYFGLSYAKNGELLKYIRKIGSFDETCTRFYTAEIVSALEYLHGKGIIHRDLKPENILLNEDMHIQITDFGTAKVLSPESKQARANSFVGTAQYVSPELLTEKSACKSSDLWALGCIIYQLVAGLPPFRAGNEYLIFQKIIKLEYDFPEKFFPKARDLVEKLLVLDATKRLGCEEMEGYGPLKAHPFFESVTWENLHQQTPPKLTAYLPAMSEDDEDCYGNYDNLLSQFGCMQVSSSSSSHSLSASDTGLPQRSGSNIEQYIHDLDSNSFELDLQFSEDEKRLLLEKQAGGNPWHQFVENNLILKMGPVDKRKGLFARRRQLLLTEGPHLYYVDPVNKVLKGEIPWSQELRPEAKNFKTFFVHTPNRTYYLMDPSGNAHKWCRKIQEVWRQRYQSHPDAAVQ

[21] = target: T12, FGFR1 (Homo sapiens, UniProt P11362); test: Kinase profiling at 10 μM (Eurofins); type: biochemical; conditions: read-out: Inhibitory activity
T12 construct: purchased Eurofins Pharma Discovery (KinaseProfiler); IC50 values by Reaction Biology Corp

[22] = target: T13, CK2 (Homo sapiens, UniProt P68400); test: Kinase profiling at 10 μM (Eurofins); type: biochemical; conditions: read-out: Inhibitory activity
T13 construct: purchased Eurofins Pharma Discovery (KinaseProfiler); IC50 values by Reaction Biology Corp

[23] = target: T14, FLT4 (Homo sapiens, UniProt P35916); test: In vitro kinase assay, IC50 (Reaction Biology Corp.); type: biochemical
T14 construct: purchased Eurofins Pharma Discovery (KinaseProfiler); IC50 values by Reaction Biology Corp
T14 sequence (P35916 25-1363): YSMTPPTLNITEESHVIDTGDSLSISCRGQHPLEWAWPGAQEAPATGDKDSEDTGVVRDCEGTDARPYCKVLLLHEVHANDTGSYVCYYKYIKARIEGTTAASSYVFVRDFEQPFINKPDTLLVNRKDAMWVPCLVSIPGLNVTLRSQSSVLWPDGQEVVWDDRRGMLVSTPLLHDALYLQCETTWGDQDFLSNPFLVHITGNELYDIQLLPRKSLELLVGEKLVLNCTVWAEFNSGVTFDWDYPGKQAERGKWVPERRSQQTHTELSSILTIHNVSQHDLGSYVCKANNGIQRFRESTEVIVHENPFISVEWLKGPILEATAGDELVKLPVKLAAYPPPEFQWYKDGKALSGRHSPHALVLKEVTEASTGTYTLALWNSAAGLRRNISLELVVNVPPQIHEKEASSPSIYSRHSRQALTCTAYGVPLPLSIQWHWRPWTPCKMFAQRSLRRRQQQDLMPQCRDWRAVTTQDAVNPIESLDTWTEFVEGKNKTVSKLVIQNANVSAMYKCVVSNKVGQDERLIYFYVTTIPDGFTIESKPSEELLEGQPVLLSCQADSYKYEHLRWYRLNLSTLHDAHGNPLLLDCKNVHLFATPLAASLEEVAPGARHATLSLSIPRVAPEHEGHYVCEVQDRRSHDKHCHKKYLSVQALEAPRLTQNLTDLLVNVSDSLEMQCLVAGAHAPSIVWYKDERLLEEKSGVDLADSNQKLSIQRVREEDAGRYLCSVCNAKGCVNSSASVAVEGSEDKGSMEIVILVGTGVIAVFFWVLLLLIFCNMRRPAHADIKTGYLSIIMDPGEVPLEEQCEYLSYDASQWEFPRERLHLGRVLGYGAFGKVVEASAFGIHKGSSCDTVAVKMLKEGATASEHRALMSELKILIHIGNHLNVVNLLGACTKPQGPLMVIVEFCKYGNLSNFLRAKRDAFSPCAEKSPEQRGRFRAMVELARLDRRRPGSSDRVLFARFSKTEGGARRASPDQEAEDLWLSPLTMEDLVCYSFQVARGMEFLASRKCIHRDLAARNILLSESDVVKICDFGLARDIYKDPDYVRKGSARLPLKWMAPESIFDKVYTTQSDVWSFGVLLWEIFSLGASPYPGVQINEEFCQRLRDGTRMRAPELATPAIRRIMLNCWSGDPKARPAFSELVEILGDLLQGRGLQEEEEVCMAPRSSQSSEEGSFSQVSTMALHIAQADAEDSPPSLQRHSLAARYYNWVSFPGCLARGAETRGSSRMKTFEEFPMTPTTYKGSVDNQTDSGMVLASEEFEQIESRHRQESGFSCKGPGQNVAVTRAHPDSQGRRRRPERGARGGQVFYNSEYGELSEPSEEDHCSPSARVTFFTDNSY

Q: How did the inhibition at 10 µM [1] turn out when `Brc1ccc(-c2cnc(Nc3cccc4ccccc34)o2)cc1` [AIU2001, 5-(4-bromophenyl)-N-(naphthalen-1-yl) oxazol-2-amine] was run?
A: 1%

Q: And the inhibition at 10 µM [2]?
A: 0%

Q: What about the γ-H2AX foci [3] of the same compound?
A: high levels of γ-H2AX foci

Q: What about the γ-H2AX foci [4] of the same compound?
A: high levels of γ-H2AX foci

Q: What about the inhibition at 10 µM [5] of the same compound?
A: 0%

Q: And the inhibition at 10 µM [6]?
A: 4%

Q: And the inhibition at 10 µM [7]?
A: 0%

Q: And the “Cleavage of caspase-3 and PARP-1” value [8]?
A: increased cleavage

Q: What about the “Cleavage of caspase-3 and PARP-1” value [9] of the same compound?
A: increased cleavage

Q: And the inhibition at 10 µM [10]?
A: 7%

Q: What about the “Growth inhibition” value [11] of the same compound?
A: inhibited the growth

Q: What about the “Growth inhibition” value [12] of the same compound?
A: inhibited the growth

Q: And the inhibition at 10 µM [13]?
A: 12%

Q: What about the inhibition at 10 µM [14] of the same compound?
A: 10%

Q: And the “Phosphorylated STAT5” value [15]?
A: dose-dependently inhibited phosphorylated STAT5

Q: And the “Phosphorylated STAT5” value [16]?
A: dose-dependently inhibited phosphorylated STAT5

Q: And the inhibition at 10 µM [17]?
A: 10%

Q: What about the inhibition at 10 µM [18] of the same compound?
A: 37%

Q: And the IC50 [19]?
A: 0.0632 µM

Q: And the inhibition at 10 µM [20]?
A: 19%

Q: And the inhibition at 10 µM [21]?
A: 1%

Q: What about the inhibition at 10 µM [22] of the same compound?
A: 10%

Q: And the IC50 [23]?
A: 0.786 µM
